Source: US7629154B2, “Deinococcus N-acylamino acid racemase and use of preparing L-amino acid” (National Chunghsing University, priority 2005, dated 2009)
Like-named read-outs stand apart in the source and are kept apart here.

Columns and labels:
[1] = target: T1, N-acylamino acid racemase (NAAAR) (Deinococcus radiodurans, UniProt Q9RYA6, A252S/A94S/G148D/K158R/P315S); assay type: biochemical, Deinococcus radiodurans NCHU1003
[2] = target: T1, N-acylamino acid racemase (NAAAR); experiment: Substrate selectivity / enzymetic activity of NAAAR by Chiral-HPLC; assay type: biochemical, Deinococcus radiodurans NCHU1003; conditions: for Specific activity: 10 mM substrate, 0.5 mM CoCl2, 50 mM Tris-HCl pH 8.0, 50° C., 30 min; for Relative activity: percentage of the enzyme activity using N-acetyl-D-Met as substrate
Experimental: The enzymetic activity was determined by measuring the production profile of conversion product at 215 nm via HPLC method as described by Tokuyama et al (1994). The reaction buffer containing 10 mM substrate, 0.5 mM CoCl2 and appropriate amount of the enzyme in 50 mM Tris-HCl buffer (pH 8.0) was incubated at 50° C. for 30 min, and the reaction was terminated by placing in boiling water for 5 min. The enzymetic activity was then measured by a Chiral-HPLC method. The Km values (mM) were determined from the original velocity data and the changes in NAc-D-HPA or NAc-D-HPA concentration. The unit NAAAR activity was defined as the enzyme amount required for catalysing 1 μmole of product formation under used condition. As described in the following Table 1, the specific activity of NAAAR for substrate N-carbamoyl-D-HPA was 1.31 U/mg, see Table 1.

[3] = tested on: L-N-carbamoylase/N-acylamino acid racemase; experiment: Conversion of NCa-D-HPA with enzymes L-N-carbamoylase/N-acylamino acid racemase; assay type: biochemical; conditions: start 10 mM N-carbamoyl-D-HPA, 50° C., pH 8.0
From the text: NCAU (5′-[…]-3′, SEQ ID NO: 5), containing BamHI restriction site; and NCAD (5′-[…]-3′, SEQ ID NO:6), containing HindIII restriction site. The nucleotide sequences encoding the NAAAR and L-N-carbamoylase were amplified from Deinococcus radiodurans NCHU1003 and Bacillus kaustophilus CCRC11223 chromosome, respectively, by PCR technology. The PCR products contained T5 promoter, lac operator and 6×his-tag sequence at the 5′-end and A transcriptional terminator at the 3′-end. The PCR products were cloned in the pQE30 expression vector. The resultant plasmid, pQEarlnca, was transformed into E. coli JM109 for inductive expression.
The reaction mixture containing 10 mM substrate N-carbamoyl-D-HPA, 0.5 mM CoCl2, 50 mM Tris-HCl buffer (pH 8.0), and the enzymes NAAAR and L-N-carbamoylase isolated from induced transformant was incubated at 50° C. for carrying out the conversion. After analysed by the Chiral-HPLC method, it is shown that the co-expressed enzymes could completely convert the original substrate to the final product L-amino acid in 2 to 3 h in one single reaction.

[4] = compound at 2 mM, percentage of activity with CoCl2, substrate 10 mM N-carbamoyl-D-HPA, 50° C., 30 min

T1 sequence (Q9RYA6 whole entry A94S/G148D/K158R/A252S/P315S): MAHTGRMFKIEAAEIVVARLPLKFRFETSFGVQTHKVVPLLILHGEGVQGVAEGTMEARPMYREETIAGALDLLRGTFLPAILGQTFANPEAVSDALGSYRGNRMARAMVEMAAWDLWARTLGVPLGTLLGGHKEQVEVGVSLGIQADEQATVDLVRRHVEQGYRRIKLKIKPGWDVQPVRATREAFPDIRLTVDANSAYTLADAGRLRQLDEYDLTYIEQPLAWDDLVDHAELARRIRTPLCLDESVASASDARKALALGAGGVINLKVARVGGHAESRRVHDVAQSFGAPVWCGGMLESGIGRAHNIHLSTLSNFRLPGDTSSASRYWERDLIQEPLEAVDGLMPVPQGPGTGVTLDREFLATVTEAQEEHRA

O=C(O)CN(CCN(CC(=O)O)CC(=O)O)CC(=O)O [EDTA]
Relative activity ([1]; compound at 10 mM, percentage of activity with CoCl2, substrate 10 mM N-carbamoyl-D-HPA, 50° C., 30 min): 0%

CC(=O)N[C@@H](Cc1c[nH]c2ccccc12)C(=O)O [N-acetyl-L-Trp]
Specific activity [2]: 0.87 U/mg
Relative activity [2]: 13.13%

CC(=O)N[C@H](Cc1ccccc1)C(=O)O [N-acetyl-D-Phe]
Specific activity [2]: 1.98 U/mg
Relative activity [2]: 30.94%

[Cl-].[Cl-].[Mg+2] [MgCl2]
Relative activity [1, 4]: 20.5%

[Cl-].[Cl-].[Zn+2] [ZnCl2]
Relative activity [1, 4]: 19.7%

CC(=O)N[C@H](CCc1ccccc1)C(=O)O [N-acetyl-D-HPA]
Specific activity [2]: 9.17 U/mg
Relative activity [2]: 143.28%

[Cl][Ni][Cl] [NiCl2]
Relative activity [1, 4]: 40.6%
Effect of bivalent metal ion on NAAAR enzymetic activity ([1]; in words): improved enzymetic activity

CSCC[C@H](NC(C)=O)C(=O)O [N-acetyl-L-Met]
Specific activity [2]: 8.04 U/mg
Relative activity [2]: 125.63%

CSCC[C@@H](NC(C)=O)C(=O)O [N-acetyl-D-Met]
Specific activity [2]: 6.40 U/mg
Relative activity [2]: 100%

CC(=O)N[C@@H](CCc1ccccc1)C(=O)O [N-acetyl-L-HPA]
Specific activity [2]: 11.97 U/mg
Relative activity [2]: 187.03%

[2H]NC(=O)N[C@@H](CCc1ccccc1)C(=O)O [N-carbamoyl-D-HPA]
Specific activity [2]: 1.31 U/mg
Relative activity [2]: 20.46%
Concentration in conversion reaction ([3]; time 0.5 hour): 4.16 mM
Concentration in conversion reaction ([3]; time 1.0 hour): 1.16 mM
Concentration in conversion reaction ([3]; time 2.0 hour): 0 mM

[Cl][Cu][Cl] [CuCl2]
Relative activity [1, 4]: 0%

CC(=O)N[C@@H](Cc1ccccc1)C(=O)O [N-acetyl-L-Phe]
Specific activity [2]: 1.55 U/mg
Relative activity [2]: 24.22%

NC(=O)N[C@@H](CCc1ccccc1)C(=O)O [N-carbamoyl-L-HPA]
Specific activity [2]: 1.91 U/mg
Relative activity [2]: 29.84%
Concentration in conversion reaction ([3]; time 0.5 hour): 0.88 mM
Concentration in conversion reaction ([3]; time 1.0 hour): 0 mM
Concentration in conversion reaction ([3]; time 2.0 hour): 0 mM

[Cl-].[Cl-].[Co+2] [CoCl2]
Effect of bivalent metal ion on NAAAR enzymetic activity [1]: improved enzymetic activity
Relative activity [1]: 100%

O=C(CCl)N[C@@H](Cc1ccccc1)C(=O)O [N-chloroacetyl-L-Phe]
Specific activity [2]: 1.16 U/mg
Relative activity [2]: 18.13%

CC(=O)N[C@@H](CC(C)C)C(=O)O [N-acetyl-L-Leu]
Specific activity [2]: 0.45 U/mg
Relative activity [2]: 7.03%

[Cl][Mn][Cl] [MnCl2]
Relative activity [1, 4]: 79.1%
Effect of bivalent metal ion on NAAAR enzymetic activity ([1]; in words): improved enzymetic activity

CC(=O)N[C@@H](CCC(N)=O)C(=O)O [N-acetyl-L-Gln]
Specific activity [2]: 0.93 U/mg
Relative activity [2]: 14.53%

[Ca+2].[Cl-].[Cl-] [CaCl2]
Relative activity [1, 4]: 0%

N[C@@H](CCc1ccccc1)C(=O)O [L-HPA, L-homophenylalanine]
Concentration in conversion reaction ([3]; time 0.5 hour): 4.96 mM
Concentration in conversion reaction ([3]; time 1.0 hour): 8.84 mM
Concentration in conversion reaction ([3]; time 2.0 hour): 10 mM
